# Source: patent US5726167A, “Inhibition of phosphatidylinositol 3-kinase with viridin, demethoxyviridin, viridiol, demethoxyviridiol, virone, wortmannolone, and analogs thereof” (Eli Lilly and Company, priority 1997, dated 1998)
# Molecular target: bovine brain purified PI 3-kinase
# Test: Assay of purified PI 3-kinase activity
# Format: biochemical
# Details: purified bovine brain PI 3-kinase, phosphatidylinositol substrate, 20 μM ATP
# Description: In another, preferred, method, PI 3-kinase was prepared from bovine brain. Two bovine brains (wet weight about 900 g) were obtained from a local slaughterhouse within minutes of slaughter, packed on ice, and homogenized within one hour. Brains were trimmed of excess fat and blood vessels and then homogenized using a Tekmar Tissuemizer (Cincinnati, Ohio) at 4° C. in 20 mM of Tris(pH 8.3) containing 250 mM of sucrose, 6 mM of β-mercaptoethanol, 1 μg/ml of leupeptin, 1 μg/ml of pepstatin A, 0.4 mM of PMSF, and 1 mM of MgCl2.
# Following centrifugation for 60 minutes at 10,000×g, the pH of the supernatant (about 1200 mL) was lowered to 5.75 using dropwise addition of 1M acetic acid at 4° C. After stirring for an additional 15 minutes at 4° C., the solution was centrifuged for 60 minutes at 13,500×g. The supernatant was discarded. Pellets were resuspended in Buffer A (20 mM of Tris, pH 8.3, containing 6 mM of β-mercaptoethanol, 0.1 mM of ethylene glycol-bis(β-aminoethyl ether) N,N,N',N'-tetraacetic acid (EGTA), 1 μg/mL of leupeptin, 1 μg/mL of pepstatin A, and 1 mM of MgCl2), and loaded onto a Fast Flow Q Sepharose column (300 ml) at a flow rate of 5 mL/minute at 4° C. […]
# PI 3-kinase activity was measured as previously described by Matter, W. F., et al., Biochemical and Biophysical Research Communications, 186: 624-631 (1992). […]
structure (smiles),measurement,setting,value
COC1C(=O)c2coc3c2[C@@](C)(c2ccc4c(c2C3=O)CCC4=O)[C@@H]1O (some centres unmarked) [viridin],"one-half maximal inhibition, IC50",,0.85 ng/mL
same,IC50,"molar value in brackets, read-out: one-half maximal inhibition, IC50",2.4 nM
